Values of other authors in PubChem BioAssay AID1259409 (Chemical Carcinogenesis Research Information System (CCRIS), 2018).

System: rodent chemically induced tumor inhibition, incidence and multiplicity
Test: CCRIS tumor inhibitor studies
Conditions: Route [Inhibitor]: ORAL, Promoter: NONE USED

Structure (SMILES): CCNC(=O)/C=C(C)/C=C/C=C(C)/C=C/C1=C(C)CCCC1(C)C
- tumour outcome (control, treated, inhibition, significance) (Carcinogen: 1,2-DIMETHYLHYDRAZINE, 540-73-8, Dose [Inhibitor]: 2 MMOL/KG DIET DAILY STARTING 12 D AFTER CARCINOGEN TREATMENT THROUGH ABOUT 8 MO AFTER CARCINOGEN DOSE (STUDY DURATION:, Species: RAT, Strain/Sex: F344/MALE, Target Tissue: Type of Lesion: COLON: ADENOCARCINOMA, Dose [Carcinogen]: 150 MG/KG BW ONCE): 10/39 (26%), 6/30 (20%), 23%, not significant
- tumour outcome (control, treated, inhibition, significance) (Carcinogen: 1,2-DIMETHYLHYDRAZINE, 540-73-8, Dose [Inhibitor]: 2 MMOL/KG DIET DAILY STARTING 12 D AFTER CARCINOGEN TREATMENT THROUGH ABOUT 8 MO AFTER CARCINOGEN DOSE (STUDY DURATION:, Species: RAT, Strain/Sex: F344/MALE, Target Tissue: Type of Lesion: COLON: ADENOMA, Dose [Carcinogen]: 150 MG/KG BW ONCE): 23/39 (59%), 15/30 (50%), 15%, not significant
- tumour outcome (control, treated, inhibition, significance) (Carcinogen: N-(4-(5-NITRO-2-FURYL)-2-THIAZOLYL)FORMAMIDE, 24554-26-5, Dose [Inhibitor]: 327 MG/KG DIET DAILY FOR 39 WK STARTING ONE WK FOLLOWING THE TERMINATION OF CARCINOGEN ADMINISTRATION (STUDY DURATION: 5, Species: RAT, Strain/Sex: F344/FEMALE, Target Tissue: Type of Lesion: URINARY BLADDER: CARCINOMA, Dose [Carcinogen]: 2 G/KG IN DIET DAILY FOR 10 WK): 105/200 (53%), 63/100 (63%), -19%, p 0.0843
- tumour outcome (control, treated, inhibition, significance) (Carcinogen: N-(4-(5-NITRO-2-FURYL)-2-THIAZOLYL)FORMAMIDE, 24554-26-5, Dose [Inhibitor]: 327 MG/KG DIET DAILY FOR 39 WK STARTING ONE WK FOLLOWING THE TERMINATION OF CARCINOGEN ADMINISTRATION (STUDY DURATION: 5, Species: RAT, Strain/Sex: F344/FEMALE, Target Tissue: Type of Lesion: URINARY BLADDER: PAPILLOMA, Dose [Carcinogen]: 2 G/KG IN DIET DAILY FOR 10 WK): 15/200 (8%), 1/100 (1%), 88%, p 0.0182
- tumour outcome (control, treated, inhibition, significance) (Carcinogen: N-(4-(5-NITRO-2-FURYL)-2-THIAZOLYL)FORMAMIDE, 24554-26-5, Dose [Inhibitor]: 327 MG/KG/D IN DIET FOR 39 WK STARTING 1 WK POST CARCINOGEN DOSE TREATMENT (STUDY DURATION: 50 WK), Species: RAT, Strain/Sex: F344/FEMALE, Target Tissue: Type of Lesion: URINARY BLADDER: PAPILLOMA, Dose [Carcinogen]: 2 G/KG/D IN DIET FOR 10 WK): 15/200 (8%), 1/100 (1%), 87%, p=0.0182
- tumour outcome (control, treated, inhibition, significance) (Carcinogen: N-(4-(5-NITRO-2-FURYL)-2-THIAZOLYL)FORMAMIDE, 24554-26-5, Dose [Inhibitor]: 327 MG/KG/D IN DIET FOR 39 WK STARTING 1 WK POST CARCINOGEN TREATMENT (STUDY DURATION: 50 WK), Species: RAT, Strain/Sex: F344/FEMALE, Target Tissue: Type of Lesion: URINARY BLADDER: CARCINOMA, Dose [Carcinogen]: 2 G/KG/D IN DIET FOR 10 WK): 105/200 (53%), 63/100 (63%), -19%, p=0.0843
- tumour outcome (control, treated, inhibition, significance) (Carcinogen: N-(4-(5-NITRO-2-FURYL)-2-THIAZOLYL)FORMAMIDE, 24554-26-5, Dose [Inhibitor]: 654 MG/KG DIET DAILY FOR 39 WK STARTING ONE WK FOLLOWING THE TERMINATION OF CARCINOGEN ADMINISTRATION (STUDY DURATION: 5, Species: RAT, Strain/Sex: F344/FEMALE, Target Tissue: Type of Lesion: URINARY BLADDER: CARCINOMA, Dose [Carcinogen]: 2 G/KG IN DIET DAILY FOR 10 WK): 105/200 (53%), 78/100 (78%), -47%, p 0.00002
- tumour outcome (control, treated, inhibition, significance) (Carcinogen: N-(4-(5-NITRO-2-FURYL)-2-THIAZOLYL)FORMAMIDE, 24554-26-5, Dose [Inhibitor]: 654 MG/KG DIET DAILY FOR 39 WK STARTING ONE WK FOLLOWING THE TERMINATION OF CARCINOGEN ADMINISTRATION (STUDY DURATION: 5, Species: RAT, Strain/Sex: F344/FEMALE, Target Tissue: Type of Lesion: URINARY BLADDER: PAPILLOMA, Dose [Carcinogen]: 2 G/KG IN DIET DAILY FOR 10 WK): 15/200 (8%), 12/100 (12%), -50%, p 0.1989
- tumour outcome (control, treated, inhibition, significance) (Carcinogen: N-(4-(5-NITRO-2-FURYL)-2-THIAZOLYL)FORMAMIDE, 24554-26-5, Dose [Inhibitor]: 654 MG/KG IN DIET FOR 39 WK STARTING 1 WK POST CARCINOGEN TREATMENT (STUDY DURATION: 50 WK), Species: RAT, Strain/Sex: F344/FEMALE, Target Tissue: Type of Lesion: URINARY BLADDER: PAPILLOMA, Dose [Carcinogen]: 2 G/KG/D IN DIET FOR 10 WK): 15/200 (7.5%), 12/100 (12%), -60%, p=0.1989
- tumour outcome (control, treated, inhibition, significance) (Carcinogen: N-(4-(5-NITRO-2-FURYL)-2-THIAZOLYL)FORMAMIDE, 24554-26-5, Dose [Inhibitor]: 654 MG/KG/D IN DIET FOR 39 WK STARTING 1 WK POST CARCINOGEN TREATMENT (STUDY DURATION: 50 WK), Species: RAT, Strain/Sex: F344/FEMALE, Target Tissue: Type of Lesion: URINARY BLADDER: CARCINOMA, Dose [Carcinogen]: 2 G/KG/D IN DIET FOR 10 WK): 105/200 (53%), 78/100 (78%), -47%, p=0.00002
- tumour outcome (control, treated, inhibition, significance) (Carcinogen: N-BUTYL-N-(4-HYDROXYBUTYL)NITROSAMINE, 3817-11-6, Dose [Inhibitor]: 0.5 MMOL/KG DIET DAILY FOR 16 WK STARTING 7 D AFTER FINAL CARCINOGEN DOSE (STUDY DURATION: 6 MO), Species: MOUSE, Strain/Sex: B6D2F1/MALE, Target Tissue: Type of Lesion: URINARY BLADDER: CARCINOMA, Dose [Carcinogen]: 5 OR 10 MG 2/WK FOR 9 WK): 36/97 (37%), 25/76 (33%), 11%, not significant
- tumour outcome (control, treated, inhibition, significance) (Carcinogen: N-BUTYL-N-(4-HYDROXYBUTYL)NITROSAMINE, 3817-11-6, Dose [Inhibitor]: 1 MMOL/KG DIET DAILY FOR 16 WK STARTING 7 D AFTER FINAL CARCINOGEN DOSE (STUDY DURATION: 6 MO), Species: MOUSE, Strain/Sex: B6D2F1/MALE, Target Tissue: Type of Lesion: URINARY BLADDER: CARCINOMA, Dose [Carcinogen]: 5 OR 10 MG 2/WK FOR 9 WK): 36/97 (37%), 16/75 (21%), 43%, p<0.025
- tumour outcome (control, treated, inhibition, significance) (Carcinogen: N-BUTYL-N-(4-HYDROXYBUTYL)NITROSAMINE, 3817-11-6, Dose [Inhibitor]: 1.5 MMOL/KG DIET DAILY FOR 153 D STARTING ONE WK AFTER THE FINAL CARCINOGEN DOSE (STUDY DURATION: 210 D), Species: MOUSE, Strain/Sex: BDF1/MALE, Target Tissue: Type of Lesion: URINARY BLADDER: TRANSITIONAL CELL CARCINOMA, Dose [Carcinogen]: 7.5 MG 1/WK FOR 8 WK): 35/99 (35%), 21/99 (21%), 40%, p<0.05
- tumour outcome (control, treated, inhibition, significance) (Carcinogen: N-BUTYL-N-(4-HYDROXYBUTYL)NITROSAMINE, 3817-11-6, Dose [Inhibitor]: 1.5 MMOL/KG IN DIET FOR 153 D STARTING 1 WK AFTER LAST CARCINOGEN DOSE (STUDY DURATION: 210 D), Species: MOUSE, Strain/Sex: DBF1/MALE, Target Tissue: Type of Lesion: URINARY BLADDER: TRANSITIONAL CELL CARCINOMA, Dose [Carcinogen]: 7.5 MG 1/WK FOR 8 WK): 35/99 (35%), 21/99 (21%), 40%, p<0.05
- tumour outcome (control, treated, inhibition, significance) (Carcinogen: N-BUTYL-N-(4-HYDROXYBUTYL)NITROSAMINE, 3817-11-6, Dose [Inhibitor]: 2 MMOL/KG DIET DAILY FOR 17 WK STARTING 7 D AFTER FINAL CARCINOGEN DOSE (STUDY DURATION: 6 MO), Species: RAT, Strain/Sex: F344/MALE, Target Tissue: Type of Lesion: URINARY BLADDER: TRANSITIONAL CELL CARCINOMA, Dose [Carcinogen]: 200 MG 2/WK FOR 8 WK): 55/60 (92%), 25/30 (83%), 10%, not significant
- tumour outcome (control, treated, inhibition, significance) (Carcinogen: N-BUTYL-N-(4-HYDROXYBUTYL)NITROSAMINE, 3817-11-6, Dose [Inhibitor]: 2 MMOL/KG DIET DAILY FOR 19 WK STARTING 7 D AFTER FINAL CARCINOGEN DOSE (STUDY DURATION: 6 MO), Species: RAT, Strain/Sex: F344/FEMALE, Target Tissue: Type of Lesion: URINARY BLADDER: TRANSITIONAL CELL CARCINOMA, Dose [Carcinogen]: 150 MG 2/WK FOR 6 WK): 28/80 (35%), 5/40 (12%), 66%, p<0.01
- tumour outcome (control, treated, inhibition, significance) (Carcinogen: N-METHYL-N-NITROSOUREA, 684-93-5, Dose [Inhibitor]: 2 MMOL/KG DIET DAILY STARTING 12 D AFTER CARCINOGEN TREATMENT THROUGH ABOUT 8 MO AFTER CARCINOGEN DOSE (STUDY DURATION:, Species: RAT, Strain/Sex: F344/MALE, Target Tissue: Type of Lesion: COLON: ADENOCARCINOMA, Dose [Carcinogen]: 2.5 MG 1/WK FOR 2 WK): 5/39 (13%), 9/30 (30%), -131%, not significant
